Assay results reported in the supplement of paper PMC10307832.

Columns and labels:
Assay in all cases: relative viability (nuclei count vs DMSO), 5 days (fraction); higher = more cells survive
Carfilzomib + OSI-027 = compound: CC(C)C[C@H](NC(=O)[C@H](CCc1ccccc1)NC(=O)CN1CCOCC1)C(=O)N[C@@H](Cc1ccccc1)C(=O)N[C@@H](CC(C)C)C(=O)[C@@]1(C)CO1 [Carfilzomib] + COc1cccc2cc(-c3nc([C@H]4CC[C@H](C(=O)O)CC4)n4ncnc(N)c34)[nH]c12 [OSI-027] (partner 0.5 µM)
How it was run: (§1)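 After 5 days of treatment, lung cancer cells in 1536-well plates were fixed and stained in a single step (final 0.05% Triton X-100, 1% formaldehyde, 1 ug/ml Hoechst) and their nuclei counted on 4× images. Treatment had been applied by pin tool the day after seeding as one drug alone or as a fixed anchor-drug dose with five library-drug doses (not always all listed) in √10 steps. Relative viability is the nuclei count of treated wells divided by that of vehicle wells, and values are medians of duplicate plates.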

Crizotinib + Foretinib = compound: C[C@@H](Oc1cc(-c2cnn(C3CCNCC3)c2)cnc1N)c1c(Cl)ccc(F)c1Cl [Crizotinib] + COc1cc2c(Oc3ccc(NC(=O)C4(C(=O)Nc5ccc(F)cc5)CC4)cc3F)ccnc2cc1OCCCN1CCOCC1 [Foretinib] (partner 0.25 µM)
How it was run: as §1

Olaparib + Alpelisib = compound: O=C(c1cc(Cc2n[nH]c(=O)c3ccccc23)ccc1F)N1CCN(C(=O)C2CC2)CC1 [Olaparib] + Cc1nc(NC(=O)N2CCC[C@H]2C(N)=O)sc1-c1ccnc(C(C)(C)C(F)(F)F)c1 [Alpelisib] (partner 2 µM)
How it was run: as §1

Olaparib + Decitabine = compound: O=C(c1cc(Cc2n[nH]c(=O)c3ccccc23)ccc1F)N1CCN(C(=O)C2CC2)CC1 [Olaparib] + Nc1ncn([C@H]2C[C@H](O)[C@@H](CO)O2)c(=O)n1 [Decitabine] (partner 2 µM)
How it was run: as §1

Cell Line | relative viability (Carfilzomib + OSI-027; first compound 0.001 µM) | relative viability (Carfilzomib + OSI-027; first compound 0.003162 µM) | relative viability (Carfilzomib + OSI-027; first compound 0.01 µM) | relative viability (Carfilzomib + OSI-027; first compound 0.03162 µM) | relative viability (Carfilzomib + OSI-027; first compound 0.1 µM) | relative viability (Crizotinib + Foretinib; first compound 0.01 µM) | relative viability (Crizotinib + Foretinib; first compound 0.03162 µM) | relative viability (Crizotinib + Foretinib; first compound 0.1 µM) | relative viability (Crizotinib + Foretinib; first compound 0.3162 µM) | relative viability (Crizotinib + Foretinib; first compound 1 µM) | relative viability (Olaparib + Alpelisib; first compound 0.08 µM) | relative viability (Olaparib + Alpelisib; first compound 0.253 µM) | relative viability (Olaparib + Alpelisib; first compound 2.53 µM) | relative viability (Olaparib + Alpelisib; first compound 8 µM) | relative viability (Olaparib + Decitabine; first compound 0.08 µM) | relative viability (Olaparib + Decitabine; first compound 0.253 µM) | relative viability (Olaparib + Decitabine; first compound 2.53 µM) | relative viability (Olaparib + Decitabine; first compound 8 µM)
LXF-289 | 0.818 | 0.9 | 0.749 | 0.163 | 0.0509 | 0.864 | 1 | 1.01 | 0.914 | 0.954 | 1.16 | 1.02 | 1.07 | 1.03 | 0.336 | 0.302 | 0.272 | 0.232
NCI-H23 | 0.592 | 0.887 | 0.716 | 0.145 | 0.144 | 0.998 | 0.905 | 1.01 | – | 0.936 | 0.658 | 0.546 | 0.539 | 0.384 | 0.336 | 0.313 | 0.259 | 0.277
NCI-H522 | 0.585 | 0.731 | 0.634 | 0.461 | 0.456 | – | – | – | – | – | – | – | – | – | 0.745 | 0.645 | 0.724 | 0.598
NCI-H1299 | – | – | – | – | – | 1.03 | 1.07 | 1.04 | 1.08 | 1.06 | 1.03 | 1 | 1.07 | 1.03 | – | – | – | –
NCI-H1563 | 0.775 | 0.71 | 0.797 | 0.705 | 0.586 | 0.93 | – | 0.888 | 0.904 | 1.05 | 1.04 | 0.952 | 0.929 | 0.973 | – | – | – | –
NCI-H1623 | 0.449 | 0.462 | 0.46 | 0.374 | 0.312 | 0.736 | 0.92 | 0.829 | 0.873 | 0.801 | – | – | – | – | – | – | – | –
NCI-H1648 | – | 0.272 | 0.256 | 0.255 | 0.298 | – | – | – | – | – | – | – | – | – | 0.431 | 0.384 | – | 0.44
NCI-H1650 | 0.656 | 0.496 | 0.162 | 0.142 | 0.198 | – | 1.1 | 0.949 | 1.07 | 1.43 | – | – | – | – | 0.432 | 0.39 | 0.32 | 0.354
NCI-H1703 | – | – | – | – | – | 0.362 | 0.295 | 0.358 | 0.398 | 0.331 | 0.45 | 0.464 | 0.391 | 0.412 | – | – | – | –
NCI-H1792 | 0.727 | 0.794 | 0.684 | 0.633 | 0.519 | – | – | – | – | – | 0.675 | 0.596 | 0.56 | 0.506 | 0.336 | 0.264 | 0.234 | 0.19
NCI-H2228 | 0.506 | 0.736 | 0.397 | 0.0668 | 0.0974 | 0.872 | 0.997 | 0.699 | 0.81 | 0.434 | 0.746 | 0.657 | 0.78 | 0.534 | – | – | – | –
NCI-H2342 | 0.663 | 0.621 | 0.723 | 0.632 | 0.495 | 1.01 | 1.04 | 1.06 | 0.978 | 1.14 | – | – | – | – | 0.756 | 0.606 | 0.663 | 0.619
SW 900 | 0.451 | 0.362 | 0.114 | 0.0786 | 0.135 | 0.935 | 0.877 | 0.823 | 1.01 | 0.742 | – | – | – | – | 0.355 | 0.331 | 0.413 | 0.355
